US20240025856A1, “1,2,3,4-TETRAHYDROQUINOLINE DERIVATIVES AS INHIBITORS OF THE YAP/TAZ-TEAD ACTIVATION FOR TREATING CANCER” (KATHOLIEKE UNIVERSITEIT LEUVEN, priority 2020, published 2024)

What follows are compounds tested on YAP/TAZ-TEAD transcription (assay: Reporter gene assay for measuring the inhibition of YAP/TAZ-TEAD transcription (TEAD-responsive element luciferase reporter in Hek293T cells)). Details: Homo sapiens, HEK-293T, 24 h, Hek293T cells transiently transfected with TEAD-responsive element luciferase reporter; 24 hours incubation.
Assay type: cell-based
Procedure: Hek293T cells are cultured in DMEM supplemented with 10% fetal bovine serum, Sodium pyruvate, Sodium bicarbonate, L-glutamine. The cells are harvested and transiently transfected with TEAD-responsive element luciferase reporter. Transfected cells are plated in 384-wells plate containing pre-diluted compounds. After 24 hours incubation at 37° C./5% CO2, assay plates were cooled down to RT and levelled to an equal volume per well, prior to the addition of 25 uL luciferase substrate SteadyLite (Perkin Elmer)/well. The plate was shaken for 10 min at 600 rpm, centrifuged for 1 min at 500 rpm and measured with an Envision reader (PerkinElmer). The amount of relative light units produced by the TEAD reporter is used to calculated percent of inhibition. The percent of reporter inhibition was calculated in the presence of a positive control inhibitor (100% inhibition) versus a condition with the presence of the vehicle basal activity of the reporter (0% inhibition). The ability of a test compound to inhibit this activity was determined as: Percentage inhibition=[[…]((RLU determined in the presence of vehicle−RLU determined for sample with test compound present) divided by (RLU determined in the presence of vehicle−RLU determined for sample with positive control inhibitor))]*100
The activities of example compounds tested are depicted in the table below. The activity ranges A, B and C refer to IC50 values in the reporter gene assay as follows: “A”: IC50<1 μM; “B”: 1 μM≤IC50≤20 μM and “C”: IC50>20 μM; NT=not tested.

IC50 [nM] | Structure (SMILES)
< 1000 | C=CC(=O)NC1Cc2ccccc2N(c2ccccc2)C1 (stereo not shown) [compound 002, N-(1-phenyl-1,2,3,4-tetrahydroquinolin-3-yl)acrylamide]
< 1000 | C=CC(=O)NC1Cc2ccccc2N(c2cccc(C(F)(F)F)c2)C1 (stereo not shown) [compound 003, N-(1-(3-(trifluoromethyl)phenyl)-1,2,3,4-tetrahydroquinolin-3-yl)acrylamide]
< 1000 | C=CC(=O)NC1Cc2ccccc2N(c2ccc(C(C)C)cc2)C1 (stereo not shown) [compound 004, N-(1-(4-isopropylphenyl)-1,2,3,4-tetrahydroquinolin-3-yl)acrylamide]
< 1000 | C=CC(=O)NC1Cc2ccccc2N(c2cccc(C(C)C)c2)C1 (stereo not shown) [compound 005, N-(1-(3-isopropylphenyl)-1,2,3,4-tetrahydroquinolin-3-yl)acrylamide]
< 1000 | C=CC(=O)NC1Cc2ccccc2N(c2cccc(OC)c2)C1 (stereo not shown) [compound 006, N-(1-(3-methoxyphenyl)-1,2,3,4-tetrahydroquinolin-3-yl)acrylamide]
< 1000 | C=CC(=O)NC1Cc2ccccc2N(c2ccc(OC)cc2)C1 (stereo not shown) [compound 007, N-(1-(4-methoxyphenyl)-1,2,3,4-tetrahydroquinolin-3-yl)acrylamide]
< 1000 | C=CC(=O)NC1Cc2ccccc2N(c2ccc(-c3ccccc3)cc2)C1 (stereo not shown) [compound 008, N-(1-([1,1′-biphenyl]-4-yl)-1,2,3,4-tetrahydroquinolin-3-yl)acrylamide]
1000 to 20000 | C=CC(=O)NC1Cc2ccccc2N(c2cccc(-c3ccccc3)c2)C1 (stereo not shown) [compound 009, N-(1-([1,1′-biphenyl]-3-yl)-1,2,3,4-tetrahydroquinolin-3-yl)acrylamide]
< 1000 | C=CC(=O)NC1Cc2ccccc2N(c2ccc(C(F)(F)F)nc2)C1 (stereo not shown) [compound 010, N-(1-(6-(trifluoromethyl)pyridin-3-yl)-1,2,3,4-tetrahydroquinolin-3-yl)acrylamide]
< 1000 | C=CC(=O)NC1Cc2ccccc2N(c2ccc(C(F)(F)F)cn2)C1 (stereo not shown) [compound 011, N-(1-(5-(trifluoromethyl)pyridin-2-yl)-1,2,3,4-tetrahydroquinolin-3-yl)acrylamide]
1000 to 20000 | C=CC(=O)NC1Cc2ccccc2N(c2ccnc(C(F)(F)F)c2)C1 (stereo not shown) [compound 012, N-(1-(2-(trifluoromethyl)pyridin-4-yl)-1,2,3,4-tetrahydroquinolin-3-yl)acrylamide]
< 1000 | C=CC(=O)NC1Cc2ccccc2N(C2CCCCC2)C1 (stereo not shown) [compound 013, N-(1-cyclohexyl-1,2,3,4-tetrahydroquinolin-3-yl)acrylamide]
1000 to 20000 | C=CC(=O)NC1Cc2ccccc2N(c2ccc(C(=O)NC)cc2)C1 (stereo not shown) [compound 014, 4-(3-acrylamido-3,4-dihydroquinolin-1(2H)-yl)-N-methylbenzamide]
1000 to 20000 | C=CC(=O)NC1Cc2ccccc2N(c2cccc(NC(C)=O)c2)C1 (stereo not shown) [compound 015, N-(1-(3-acetamidophenyl)-1,2,3,4-tetrahydroquinolin-3-yl)acrylamide]
1000 to 20000 | C=CC(=O)NC1Cc2ccccc2N(c2ccc3[nH]ccc3c2)C1 (stereo not shown) [compound 016, N-(1-(1H-indol-5-yl)-1,2,3,4-tetrahydroquinolin-3-yl)acrylamide]
< 1000 | C=CC(=O)NC1Cc2ccccc2N(c2ccc3cc[nH]c3c2)C1 (stereo not shown) [compound 017, N-(1-(1H-indol-6-yl)-1,2,3,4-tetrahydroquinolin-3-yl)acrylamide]
< 1000 | C=CC(=O)NC1Cc2ccccc2N(c2ccc(F)c(F)c2)C1 (stereo not shown) [compound 018, N-(1-(3,4-difluorophenyl)-1,2,3,4-tetrahydroquinolin-3-yl)acrylamide]

IC50 [nM] | Structure (SMILES)
< 1000 | C=CC(=O)NC1Cc2ccccc2N(c2ccc(C3CCCCC3)cc2)C1 (stereo not shown) [compound 019, N-(1-(4-cyclohexylphenyl)-1,2,3,4-tetrahydroquinolin-3-yl)acrylamide]
< 1000 | C=CC(=O)NC1Cc2ccccc2N(c2ccc(C(F)F)cc2)C1 (stereo not shown) [compound 020, N-(1-(4-(difluoromethyl)phenyl)-1,2,3,4-tetrahydroquinolin-3-yl)acrylamide]
< 1000 | C=CC(=O)NC1Cc2ccccc2N(c2ccc(OC(F)F)cc2)C1 (stereo not shown) [compound 022, N-(1-(4-(difluoromethoxy)phenyl)-1,2,3,4-tetrahydroquinolin-3-yl)acrylamide]
< 1000 | C=CC(=O)NC1Cc2ccccc2N(c2cccc(F)c2)C1 (stereo not shown) [compound 024, N-(1-(3-fluorophenyl)-1,2,3,4-tetrahydroquinolin-3-yl)acrylamide]
< 1000 | C=CC(=O)NC1Cc2ccccc2N(c2cccc(F)c2F)C1 (stereo not shown) [compound 025, N-(1-(2,3-difluorophenyl)-1,2,3,4-tetrahydroquinolin-3-yl)acrylamide]
< 1000 | C=CC(=O)NC1Cc2ccccc2N(c2cc(F)ccc2F)C1 (stereo not shown) [compound 026, N-(1-(2,5-difluorophenyl)-1,2,3,4-tetrahydroquinolin-3-yl)acrylamide]
< 1000 | C=CC(=O)NC1Cc2ccccc2N(c2cc(F)cc(F)c2)C1 (stereo not shown) [compound 027, N-(1-(3,5-difluorophenyl)-1,2,3,4-tetrahydroquinolin-3-yl)acrylamide]
< 1000 | C=CC(=O)NC1Cc2ccccc2N(c2cnc(C(F)(F)F)nc2)C1 (stereo not shown) [compound 031, N-(1-(2-(trifluoromethyl)pyrimidin-5-yl)-1,2,3,4-tetrahydroquinolin-3-yl)acrylamide]
< 1000 | C=CC(=O)NC1Cc2ccccc2N(c2cccc(Cl)c2)C1 (stereo not shown) [compound 032, N-(1-(3-chlorophenyl)-1,2,3,4-tetrahydroquinolin-3-yl)acrylamide]
< 1000 | C=CC(=O)NC1Cc2ccccc2N(c2ccc(Cl)cc2)C1 (stereo not shown) [compound 033, N-(1-(4-chlorophenyl)-1,2,3,4-tetrahydroquinolin-3-yl)acrylamide]
< 1000 | C=CC(=O)NC1Cc2ccccc2N(c2ccc(C)cc2C)C1 (stereo not shown) [compound 034, N-(1-(2,4-dimethylphenyl)-1,2,3,4-tetrahydroquinolin-3-yl)acrylamide]
< 1000 | C=CC(=O)NC1Cc2ccccc2N(c2ccc(F)cc2)C1 (stereo not shown) [compound 035, N-(1-(4-fluorophenyl)-1,2,3,4-tetrahydroquinolin-3-yl)acrylamide]
< 1000 | C=CC(=O)NC1Cc2ccccc2N(c2ccc(F)cc2F)C1 (stereo not shown) [compound 036, N-(1-(2,4-difluorophenyl)-1,2,3,4-tetrahydroquinolin-3-yl)acrylamide]
1000 to 20000 | CCC(=O)NC1Cc2ccccc2N(c2ccc(C(F)(F)F)cc2)C1 (stereo not shown) [compound 037, N-(1-(4-(trifluoromethyl)phenyl)-1,2,3,4-tetrahydroquinolin-3-yl)propionamide]
1000 to 20000 | CC(C)=CC(=O)NC1Cc2ccccc2N(c2ccc(C(F)(F)F)cc2)C1 (stereo not shown) [compound 038, 3-methyl-N-(1-(4-(trifluoromethyl)phenyl)-1,2,3,4-tetrahydroquinolin-3-yl)but-2-enamide]
< 1000 | C#CC(=O)NC1Cc2ccccc2N(c2ccc(C(F)(F)F)cc2)C1 (stereo not shown) [compound 040, N-(1-(4-(trifluoromethyl)phenyl)-1,2,3,4-tetrahydroquinolin-3-yl)propiolamide]
1000 to 20000 | CN(C)C/C=C/C(=O)NC1Cc2ccccc2N(c2ccc(C(F)(F)F)cc2)C1 (stereo not shown) [compound 041, (E)-4-(dimethylamino)-N-(1-(4-(trifluoromethyl)phenyl)-1,2,3,4-tetrahydroquinolin-3-yl)but-2-enamide]
